According to patent US9676859B2, “In vitro generation of dendritic cells by exposure to an anti-CSF1-R antibody” (TRANSGENE SA, priority 2012, dated 2017):

What was measured:
[1] = system: differentiating macrophages; assay: Human macrophage differentiation assay: microscopical observation and cell counts of day-6 cultures (cytotoxicity); format: cell-based; conditions: for Microscopical observation of day-6 cultures (cytotoxicity), compared with untreated cells: all doses evaluated (mAbs 0.1, 1, 10 μg/ml, F(ab′)2 0.066, 0.66, 6.6 μg/ml), all donors
Source text: Cells were counted following a 6-day culture of monocyte, or precursors thereof, s with GM-CSF and CSF-1, in the presence or absence of anti-CD115 mAbs or F(ab′)2 or with GW2580. Controls included cultures treated with rituximab or rituximab F(ab′)2, or without any added compound.
Buffy coats were provided by the Etablissement Français du Sang (EFS, Strasbourg). Peripheral blood mononucleated cells (PBMC) were obtained by centrifugation on a ficoll gradient. Monocytes were purified by immunomagnetic cell sorting, using CD14-antibody-coated beads (Miltenyii). […] Monocytes were differentiated for 6 days in 48-well plates (3×10^5 cells/well) in RPMI-Glutamax™ medium supplemented with 10% heat inactivated fetal calf serum and 1% tri-antibiotic mixture (penicillin, streptomycin, neomycin). GM-CSF (10 ng/ml) was added in the cell culture medium from day 0 to day 3. H27K15, other antibodies or internal control GW2580 (LC Labs) were added at day 0. On day 3 post-isolation, monocytes were washed with PBS and further cultivated in medium supplemented with CSF-1 (10 ng/ml) and GM-CSF (2 ng/ml), in the presence or absence of antibodies or GW2580. On day 6, supernatants were collected and stored at −20° C. Cells were detached from the plastic and pools of triplicates were analyzed by IC/FC (immunocytochemistry/flow cytometry) for cell sizes and expression of FcγR and CD86. Cytokines and chemokines were quantified in the culture supernatants by multiplex (Bioplex, Bio-Rad) or by ELISA.
Three different doses of mab H27K15 or isotype control rituximab (0.1; 1 or 10 μg/ml) were added to the culture medium at the beginning of the culture and again 3 days later. F(ab′)2 generated from H27K15 or from rituximab were tested in parallel at equivalent molar concentrations.
Cell viability was analyzed at day 6 by counting 5 microscope fields in each well of the plate (one in the center of the well and four fields at mid-distance between the center and the side of the well).

CD64 (FcγRI) = assay: Surface expression of CD64 on day-6 macrophages by IC/FC; format: cell-based, human; conditions: GW2580 1 μM vs no treatment
Method: Macrophages obtained following a 6-day culture of monocyte, or precursors thereof from 3 different blood donors with GM-CSF and CSF-1 were analyzed by IC/FC for surface expression of CD64. Upper panels: CD64 staining in cultures from donor 1 treated with monoclonal antibody H27K15 (left, bold line) or with GW2580 (right, bold line) or their respective negative controls rituximab (left, thin line) or no treatment (right, thin line). Lower panel: Medians of fluorescence intensities in macrophage cultures treated with test compounds at 10, 1 or 0.1 μg/ml* were compared with those in the corresponding negative controls: H27K15 vs rituximab, H27K15-derived F(ab′)2 vs rituximab-derived F(ab′)2, mAbs 2-4A5 or 9-4D2 vs rat IgG1, GW2580 vs no treatment. Percentages of reduction in CD64 expression were calculated as: 100−[100×Median fluorescence intensity with test compound/Median fluorescence intensity with control]. […]
(§1) Buffy coats were provided by the Etablissement Français du Sang (EFS, Strasbourg). […] Cells were detached from the plastic and pools of triplicates were analyzed by IC/FC (immunocytochemistry/flow cytometry) for cell sizes and expression of FcγR and CD86. Cytokines and chemokines were quantified in the culture supernatants by multiplex (Bioplex, Bio-Rad) or by ELISA. […]

CD86 = assay: Induction of CD86bright SSClow macrophage population by IC/FC; format: cell-based, human; conditions: day-6 macrophages; mAb 10, 1, 0.1 μg/ml, F(ab′)2 equimolar, GW2580 1 μM
Method: Upper panels: Dot plots showing CD86 staining (x-axis) and side scatter (SSC, y-axis) of macrophages from donor 3 differentiated for 6 days in the presence of H27K15 (left) or negative control rituximab (right). A gate was set on the CD86^bright SSC^low cell population induced by H27K15. Lower panel: Percentages of CD86^bright SSC^low cells with the test compounds at 10, 1 or 0.1 μg/ml* were compared with those in the corresponding negative controls: H27K15 vs rituximab, H27K15-derived F(ab′)2 vs rituximab-derived F(ab′)2, GW2580 vs no treatment. Percentages of increase in the CD86^bright SSC^low cell population were calculated as: 100×percentage of CD86^bright SSC^low cells with test compound/percentage of CD86^bright SSC^low cells with control. Shown are the mean percentages of increase in the CD86^bright SSC^low cell population from the 3 blood donors. *except for F(ab′)2: 6.6; 0.6; and 0.06 μg/ml.
as §1, with “Strasbourg). Peripheral blood mononucleated cells (PBMC) were obtained by centrifugation on a ficoll gradient.” for “Strasbourg).”

IL-12p70 = IL-12p70 titration in day-6 macrophage culture supernatants; format: cell-based, human; conditions: day-6 supernatants, 3 blood donors, GW2580 1 μM; for IL-12p70 secretion: mAbs 1 μg/ml, detection limit 11 pg/ml
Method: (§2) IL-12p70 and IL-10 were titrated in the culture supernatants from day-6 macrophages differentiated in the presence of mAb H27K15 (1 μg/ml), GW2580 (1 μM) or their respective negative controls rituximab or no treatment. Left panel: IL-12p70 and IL-10 levels […] in macrophage cultures from 3 blood donors. Right: IL-12p70 […]/IL-10 […] ratios were calculated for each blood donor and each culture condition. In samples where IL-12p70 was undetectable (below the detection limit of 11 pg/m)l, its level was arbitrarily set at 1 pg/ml for the calculation of IL-12p70/IL-10 ratios.
(§3) Buffy coats were provided by the Etablissement Français du Sang (EFS, Strasbourg). Peripheral blood mononucleated cells (PBMC) were obtained by centrifugation on a ficoll gradient. Monocytes were purified by immunomagnetic cell sorting, using CD14-antibody-coated beads (Miltenyii). Enriched monocyte suspensions were more than 95% pure. Monocytes were differentiated for 6 days in 48-well plates (3×10^5 cells/well) in RPMI-Glutamax™ medium supplemented with 10% heat inactivated fetal calf serum and 1% tri-antibiotic mixture (penicillin, streptomycin, neomycin). GM-CSF (10 ng/ml) was added in the cell culture medium from day 0 to day 3. H27K15, other antibodies or internal control GW2580 (LC Labs) were added at day 0. On day 3 post-isolation, monocytes were washed with PBS and further cultivated in medium supplemented with CSF-1 (10 ng/ml) and GM-CSF (2 ng/ml), in the presence or absence of antibodies or GW2580. On day 6, supernatants were collected and stored at −20° C. Cells were detached from the plastic and pools of triplicates were analyzed by IC/FC (immunocytochemistry/flow cytometry) for cell sizes and expression of FcγR and CD86. Cytokines and chemokines were quantified in the culture supernatants by multiplex (Bioplex, Bio-Rad) or by ELISA.
IL-12p70 and IL-10 were titrated in day-6 culture supernatants.

IL-10 = IL-10 titration in day-6 macrophage culture supernatants; format: cell-based, human; conditions: day-6 supernatants; GW2580 1 μM
Method: as §2
as §1, with “Strasbourg). Peripheral blood mononucleated cells (PBMC) were obtained by centrifugation on a ficoll gradient. Monocytes were purified by immunomagnetic cell sorting, using CD14-antibody-coated beads (Miltenyii). Enriched monocyte suspensions were more than 95% pure.” for “Strasbourg).”

MCP-1/CCL2 = MCP-1/CCL2 titration in day-6 macrophage culture supernatants; format: cell-based, human; conditions: day-6 supernatants; H27K15 1 μg/ml, GW2580 1 μM
Method: MCP-1 and IL-6 were titrated in the culture supernatants from day-6 macrophages differentiated in the presence of mAb H27K15 (1 μg/ml), GW2580 (1 μM) or their respective negative controls rituximab or no treatment. Percentages of reduction in MCP-1 (upper panel) or in IL-6 production (lower panel) were calculated for the 3 blood donors as: 100−[100×cytokine concentration with test compound (pg/ml)/cytokine concentration with control (pg/ml)].
as §3, with “H27K15, other antibodies or internal control GW2580 (LC Labs) were added at day 0. On day 3 post-isolation, monocytes were washed with PBS and further cultivated in medium supplemented with CSF-1 (10 ng/ml) and GM-CSF (2 ng/ml), in the presence or absence of antibodies or GW2580. On day 6, supernatants were collected and stored at −20° C.” left out, “ELISA. […]” for “ELISA.”

MMP-9 = MMP-9 ELISA in day-6 supernatants of monocytes cultured with GM-CSF and CSF-1; format: cell-based, human; conditions: mAb 0.1, 1, 10 μg/ml, F(ab)′2 equimolar, effect in 2 out of 3 donors
Method: Monocytes isolated from 3 different blood donors were differentiated for 6 days in the presence of GM-CSF and CSF-1, with or without mAb H27K15, Rituximab or GW2580. MAb H27K15 or Rituximab (0.1, 1 or 10 μg/ml) or equimolar concentrations of F(ab)′2 derived from both mAbs were added to the cultures. MMP-9 was titrated by ELISA (R&D Systems) in day-6 culture supernatants.
CD14^+ monocytes from 3 different donors were allowed to differentiate in the presence of both GM-CSF and CSF-1, known to induce macrophage differentiation towards respectively the M1- and M2-types. MAb H27K15 or Rituximab (used as a negative control) were added to the cultures at 0.1, 1 or 10 μg/ml. Equimolar concentrations of F(ab)′2 derived from both mAbs were assayed in parallel. The tyrosine kinase inhibitor GW2580, previously shown to inhibit the CSF-1-dependent proliferation of human monocytes and the differentiation of murine macrophages in vitro was tested in the same assay. After 6 days of culture, MMP-9 concentrations were measured in the supernatants by ELISA (FIG. 6). […] Thus, mAb H27K15 is capable of decreasing MMP-9 secretion by differentiating M2 macrophages.

[2] = system: CD163+ M2-type macrophages; assay: Flow cytometry of CD163-positive M2-type macrophages in day-6 cultures; format: cell-based, human; conditions: day-6 cultures with GM-CSF and CSF-1; 3 donors
Method: Cells obtained after 6-day culture with GM-CSF and CSF-1 were harvested and incubated for 20 min at 4° C. with PBS containing human IgG Fc fragments to saturate Fc receptors. Fluorochrome-conjugated mAbs (anti-CD14-PerCP-Cy5.5, anti-CD163-PE, anti-CD206-APC, anti-CD1a-FITC, BD Biosciences) were then incubated with each sample for 20 min at 4° C. FCM analysis was performed using a FACS LSR-II (BD biosciences) with the DIVA software. Data from 3 different blood donors are presented.
The surface expression of CD163 was analyzed by flow cytometry in day-6 macrophages derived from human monocytes cultured with GM-CSF and CSF-1. […] Culture with mAb H27K15 inhibited the differentiation of the CD163^+ macrophage population in all 3 donors tested. In the presence of 1 μg/ml H27K15, percentages of CD163-positive cells decreased from 2.5 to 4 folds compared with control cultures treated with rituximab.

Compound	macrophage number remained at day 6 compared with untreated cultures ([1]; 1 μM)	Microscopical observation of day-6 cultures (cytotoxicity) ([1]; 1 μM, all blood donors)	surface expression of CD64 (CD64 (FcγRI))	Induction of CD86bright SSClow cell sub-population (CD86)	IL-12p70/IL-10 ratios (IL-12p70; H27K15 1 μg/ml, vs rituximab or no treatment)	IL-12p70 secretion (IL-12p70)	IL-10 production (IL-10)	production of the chemokine MCP-1/CCL2 (MCP-1/CCL2)	MMP-9 production (MMP-9)	differentiation of the CD163+ macrophage population [2]	Microscopical observation of day-6 cultures (cytotoxicity), compared with untreated cells [1]
COc1ccc(COc2ccc(Cc3cnc(N)nc3N)cc2OC)cc1 [GW2580, reference compound]	approximately 70%	relative cytotoxicity	drastically reduced	had appeared	increased	not detectable	inhibition	almost totally suppressed	dose-dependent decrease	same effect in only 2/3 donors	–
Rituximab F(ab′)2: F(ab′)2 produced by pepsine digestion of rituximab, negative control	–	–	–	–	–	–	–	–	–	–	no obvious differences
Rituximab: human IgG1 isotype / negative control, obtained from Roche	–	–	–	–	–	did not produce any detectable IL-12p70	–	–	–	–	no obvious differences
